SMILES strings stand for the structures.

For 67 molecules, IC50, IC90 and CC50 results are on record in PubChem BioAssay AID1626 (SRMLSC, 2009).

The experiment relates to M. tuberculosis H37Rv growth inhibition. Put plainly: M. tuberculosis H37Rv growth inhibitors, H37Rv strain (AID 1626). The following applies: for IC90: measured here: IC90 against H37Rv; for CC50: measured here: Vero cell cytotoxicity.

In the case of `Cc1nn(-c2ccccc2)c(Cl)c1CN(C(=O)CCl)c1ccc(Cl)cc1`, the IC50 was 13.5 µM, the IC90 was determined as 31.3 µM and the CC50 worked out at 1.82 µM.
For `O=C1CC(=C(c2ccccc2)c2ccccc2)C(=O)N1CCCCN1CCN(c2cccc(Cl)c2)CC1` the same measures were 4.47 µM, 6.35 µM and over 40 µM.
On to `C=CCOc1ccc(C=Nc2ccc(OC)cc2)c(O)c1`, for which the IC90 was over 100 µM.
With `CCOC(=O)c1nc2sc3c(c2c(=O)[nH]1)CCC(C)C3` (configuration not stated), the IC50 was 10.4 µM and the IC90 is over 100 µM.
For the molecule `CCOC(=O)c1cn[nH]c1N`, the IC90 is over 100 µM.
Consider `COc1cc(-c2ccc3oc(-c4ccsc4)c(C#CC4(O)CCCCC4)c3c2)cc(OC)c1OC`, for which the IC50 is 3.77 µM, the concentration for an effect of 90% (IC90) is over 100 µM and the CC50 was over 40 µM.
In turn, `Nc1nc(COc2ccc(Cl)cc2)cs1` had a 90% effect concentration (IC90) of over 100 µM.
For the molecule `Cn1c(NCc2ccccc2)nc2c1c(=O)n(Cc1ccc(Br)cc1)c(=O)n2C`, the half-inhibitory concentration (IC50) is 13.8 µM, the IC90 is over 100 µM and the CC50 was over 40 µM.
Regarding `CCCCC(=O)OCC(=O)Nc1ccc(SC(F)F)cc1`, the IC90 was over 100 µM.
The molecule `Cc1sc(-n2c(C)cc(/C=N/n3cnnc3)c2C)c(C#N)c1C` returned a half-maximal cytotoxic concentration (CC50) of over 40 µM.
For the molecule `Cc1ccc(Nc2cc(C)nn2-c2nc(C)cc(=O)[nH]2)cc1`, the IC50 was under 0.391 µM, the IC90 came to 5.56 µM and the CC50 was 1.95 µM.
Regarding `COC(=O)COc1ccc2c(=O)c(-c3ccccc3OC)coc2c1`, the half-inhibitory concentration (IC50) is 3.01 µM and the IC90 worked out at 5.62 µM.
For `C=CCOc1ccc(CN(C)Cc2nc3cc(C(F)(F)F)ccc3c(=O)[nH]2)cc1` the same measures were 12.4 µM and over 100 µM.
For `CCCCCCc1cc2cc(C(=O)NC)c(=N)oc2cc1O` the same measures were 4.69 µM and 7.11 µM.
With `O=C(/C=C/c1cccc(Cl)c1)c1nc2ccccc2[nH]1`, the IC50 is 2.94 µM, the IC90 turned out to be 3.34 µM and the CC50 was 15.3 µM.
Taken in the same sequence, the figures for `O=S(=O)(c1ccc(Cl)c(Cl)c1)c1snnc1-c1ccccc1` were 2.71 µM, 5.42 µM and 3.84 µM.
In the case of `Cc1ccc(Cc2cnc(NC(=O)C3CCCO3)s2)cc1` (configuration not stated), the IC90 is over 100 µM and the CC50 was over 40 µM.
For the molecule `CCc1nnc(NC(=O)c2ccc3ccccc3n2)s1`, the IC50 was 12.1 µM, the concentration for an effect of 90% (IC90) is over 100 µM and the 50% cytotoxic concentration (CC50) was over 40 µM.
Regarding `CCCCOC(=O)Nc1ccc(C(=O)OCCC)cc1`, the half-inhibitory concentration (IC50) was 2.34 µM and the IC90 is over 100 µM.
Take `O=C1N=C(N2CCOCC2)S/C1=C/c1ccc(-c2ccc(F)cc2)o1`: the IC90 is over 100 µM.
As to `COc1ccc(O)c(C(=O)CC(=O)c2ccccc2C)c1`, the IC50 is 17.2 µM, the IC90 is over 100 µM and the CC50 turned out to be 17.1 µM.
Regarding `Cc1ccc(OC(=O)c2sc3ncn(C)c(=O)c3c2C)cc1`, the IC50 was 1.49 µM and the IC90 is 1.7 µM.
For `CCn1ccnc1CN1CCCC(C(=O)c2ccc3cc(OC)ccc3c2)C1` (configuration not stated), the IC50 was 10.9 µM, the IC90 turned out to be 25.5 µM and the CC50 is over 40 µM.
`Cc1sc(N)nc1-c1ccccc1` had an IC90 of over 100 µM.
For the molecule `CCOC(=O)Cn1nnc(-c2ccc(OCC(C)C)cc2)n1`, the IC50 was 16.6 µM and the IC90 was over 100 µM.
Take `O=C(/C=C/c1ccccc1)CC(=O)c1ccccc1O`: the IC50 was 23.7 µM, the IC90 is over 100 µM and the CC50 was over 40 µM.
In the case of `Oc1c(CN2CCc3ccccc3C2)cc(Cl)c2cccnc12`, the IC50 was 7.65 µM, the 90% effect concentration (IC90) came to 9.8 µM and the cytotoxic concentration (CC50) amounted to 4.88 µM.
For `CCCCCc1cc(=O)oc2c(C(CCN3CCCCC3)c3cc(OC)c(OC)c(OC)c3)c(OC)cc(OC)c12` (configuration not stated) the same measures were 4.18 µM, 5.62 µM and 13.7 µM.
In the case of `CCN(CC)CCC(c1ccc2c(c1)OCO2)c1c(OC)cc(OC)c2c(-c3ccccc3)cc(=O)oc12` (configuration not stated), the IC50 was 13.4 µM, the IC90 is 21.3 µM and the CC50 stood at 16.5 µM.
In the case of `O=[N+]([O-])c1cc(Cl)c(O)c2ncccc12`, the half-maximal inhibitory concentration (IC50) is 16.3 µM, the IC90 came to 24.7 µM and the CC50 turned out to be 21.7 µM.
On to `N#Cc1c(SCC(N)=O)nsc1SCc1ccccc1Cl`, for which the IC50 was 12.1 µM and the IC90 was found to be 14.5 µM.
For the molecule `c1ccc(CN2CCN(c3nc(-c4ccccc4)nc(-n4ccnc4)n3)CC2)cc1`, the IC50 is 1.5 µM, the IC90 was 2.2 µM and the CC50 is over 40 µM.
For `CC(=O)c1ccccc1OCC(O)CN1CCN(C(c2ccccc2)c2ccccc2)CC1` (configuration not stated) the same measures were 7.75 µM, 32.6 µM and 33.1 µM.
Consider `COc1ccc(NC2=CC(c3ccc(OC)cc3)N(c3ccc(OC)cc3)C2=O)cc1` (configuration not stated), for which the IC90 is over 100 µM and the CC50 was over 40 µM.
As to `Cc1nc(NCc2ccc3c(c2)OCO3)c2oc3ccccc3c2n1`, the IC50 is 7.7 µM and the IC90 was 21.8 µM.
Regarding `Cc1ccc(-n2c(C)nc3c(cnn3-c3ccc(C)c(C)c3)c2=O)cc1C`, the half-maximal cytotoxic concentration (CC50) is over 40 µM.
For `CCCC(=O)N1CCN(c2ccc(NC(=O)c3ccc([N+](=O)[O-])o3)cc2)CC1`, the IC50 is 1 µM, the IC90 is 2.22 µM and the CC50 was found to be 3.1 µM.
For `CCOC(=O)c1ccc(NC(=O)c2cc3c(s2)CCC3)cc1`, the IC50 is 4.74 µM and the IC90 was over 100 µM.
With `Cc1ccc(C(=O)/C=C/c2ccccc2[N+](=O)[O-])cc1`, the IC50 was 4.21 µM, the IC90 was found to be 7.62 µM and the CC50 came to 26.5 µM.
On to `CC(C)(C)C1CCc2c(sc(NC(=O)CSc3nnc(-c4ccccc4)o3)c2C#N)C1` (configuration not stated), for which the 90% effect concentration (IC90) was over 100 µM.
For the molecule `O=C(Nc1ncc(Cc2ccccc2Cl)s1)C1=NCCN1`, the IC50 was 3.75 µM, the IC90 came to 10.3 µM and the CC50 was over 40 µM.
For `COc1ccc(OCc2n(CC(=O)OC3CC(C)CCC3C(C)C)c3ccccc3[n+]2C)cc1` (configuration not stated) the same measures were 3.34 µM, 5.49 µM and 26.4 µM.
With `c1ccc(C2=Nc3ccccc3OC2)cc1`, the IC50 was 4.73 µM and the IC90 came out at 8.31 µM.
Take `O=C(Nc1cc(C(F)(F)F)cc(C(F)(F)F)c1)Nc1cnn(-c2ccc([N+](=O)[O-])cc2)c1C(F)(F)F`: the IC50 is 0.676 µM, the IC90 was found to be 0.938 µM and the CC50 stood at 2.76 µM.
On to `Cc1ccc(C(=O)CC(=O)c2cc(Cl)ccc2O)cc1`, for which the IC50 was 3.48 µM, the IC90 was 4.67 µM and the CC50 turned out to be 20.2 µM.
On to `CC(C)(C)n1c(O)c(C=Nc2ccc3c(c2)CCC3)c(=O)[nH]c1=O`, for which the IC50 is 37.8 µM, the IC90 is over 100 µM and the CC50 was over 40 µM.
Taken in the same sequence, the figures for `Cc1cc(C)c2nc(/N=C(\N)NC(=O)Nc3ccccc3)nc(C)c2c1` were 4.02 µM, 5.93 µM and over 40 µM.
For `Cc1coc2c1C(=O)C(=O)c1c-2ccc2c1CCCC2(C)C`, the IC50 is 3.23 µM and the IC90 was 4.85 µM.
As to `COc1ccc(CNC(=O)c2c(C)nc3ccccn23)cc1`, the 50% inhibitory concentration (IC50) is 1.77 µM and the IC90 is 7.63 µM.
Consider `O=C(Nc1nnc(-c2ccccc2)o1)c1cc(Cl)sc1Cl`, for which the half-maximal inhibitory concentration (IC50) is 2.4 µM, the concentration for an effect of 90% (IC90) was over 100 µM and the CC50 was over 40 µM.
`COc1cc(CNCc2ccccn2)ccc1OCc1ccc(Cl)c(Cl)c1`: the IC50 was 5.63 µM, the IC90 was found to be 7.7 µM and the CC50 was over 40 µM.
For `CN(CCCC[C@H](CNCc1ccc(-c2ccccc2)cc1)N1C[C@H](c2ccccc2)N(CCc2ccc(Cl)c(Cl)c2)C(=O)C1=O)Cc1ccc(-c2ccccc2)cc1` the same measures were 5.07 µM, 5.61 µM and 6.12 µM.
Regarding `CC(C)c1ccc(NC(=O)COc2ccc(C3SCCS3)cc2)cc1`, the 90% effect concentration (IC90) is over 100 µM.
With `Cc1cc(C)c2c(CN3CCN(Cc4ccc5c(c4)OCO5)CC3)cc(=O)oc2c1C`, the half-inhibitory concentration (IC50) was 19 µM and the IC90 was over 100 µM.
Turning to `CC(C)OC(=O)c1ccc(NC(=O)c2cncc(Br)c2)cc1`, the IC90 is over 100 µM.
As for `COC(=O)c1ccc(Cn2cc(C(F)(F)F)cc([N+](=O)[O-])c2=O)cc1`, the IC50 is 29.9 µM and the 90% effect concentration (IC90) was over 100 µM.
Take `CCOc1ccc2nc(NC(=O)c3cnc(C)cn3)sc2c1`: the IC50 was 4.76 µM, the concentration for an effect of 90% (IC90) was over 100 µM and the CC50 was 40 µM.
For the molecule `CC(=O)n1cc(N(C(=O)CCl)c2ccc([N+](=O)[O-])cc2)c2ccccc21`, the IC50 is 14 µM, the IC90 came to 30.3 µM and the CC50 turned out to be 14.7 µM.
Take `C=CCNc1cc(C(F)(F)F)nc(-c2ccccn2)n1`: the IC50 was 4.87 µM and the concentration for an effect of 90% (IC90) amounted to 16.3 µM.
For the molecule `Cc1ccc(Cn2ccc(=O)c(OCc3c(Cl)cccc3Cl)c2C)cc1`, the IC50 is 8.57 µM, the IC90 came out at 11.8 µM and the CC50 is over 40 µM.
In the case of `COc1ccc(N=C/C=C2/C=C(c3ccccc3)OC(C)(C)O2)cc1`, the concentration for half-maximal inhibition (IC50) is 63.4 µM and the concentration for an effect of 90% (IC90) is over 100 µM.
For `CCCCC(=O)c1ccc(O)cc1` the same measures were 15.2 µM and over 100 µM.
As for `Cc1ccc(NC(=O)C2CCCCC2C(=O)O)cc1Cl` (configuration not stated), the IC90 is over 100 µM.
Take `c1ccc(-c2oc3ncnc(NCCCn4ccnc4)c3c2-c2ccccc2)cc1`: the IC50 is 7.29 µM, the IC90 turned out to be 16.4 µM and the 50% cytotoxic concentration (CC50) stood at 23.6 µM.
For `CSc1ccc(NC(=O)N2CCN(c3nc4ccccc4s3)CC2)cc1`, the half-inhibitory concentration (IC50) is 9.18 µM, the IC90 is over 100 µM and the CC50 is over 40 µM.
Taken in the same sequence, the figures for `Cn1c(-c2ccc3c(c2)OCO3)cnc1NCc1cccc(Cl)c1` were 11.4 µM, 13.1 µM and over 40 µM.
Consider `COc1ccc(-c2nn(-c3ccccc3)cc2/C=N/N=C(N)N)cc1OC`, for which the IC50 is 13.3 µM, the IC90 stood at 22.6 µM and the cytotoxic concentration (CC50) is 32.3 µM.
